In patent US20240190971A1, “USE OF an anti-P-selectin antibody” (NOVARTIS AG, priority 2018, published 2024):

How the values were obtained:
Gata1^low mice = settings: mouse, in vivo
Method: Given the well described effects of inhibition of the TGF-β receptor 1 kinase on myelofibrosis in mouse models, the effects of the P-selectin inhibitor with those obtained with SB431542 are compared. In fact, contrary to inhibition of TGF-β signaling, inhibition of P-selectin has limited side effects and is therefore preferable to TGF-β inhibitors. […] Gata1^low mice are treated at 5-6 months of age (i.e. in the pre-MF stage) and analyzed at 10-12 months, an age when they are expected to have MF.
Gata1^low mice (8 mice per group) are treated with SB431542 according to the following scheme: • Group 1: Vehicle treated (2% v/v DMSO in H2O) (negative control) • Group 2: Mice receive SB431542 (60 μg/kg/day, cat no S4317-5GM, Sigma-Aldrich, St Louis, MO), as described (Spangrude G J et al, Stem Cells 2016; 34:67-82; Zingariello M et al, Blood 2013; […]
5-6 months old mice are treated daily for 5 days (Monday to Friday), then rested for 2 days and then treated again for 5 days. These treatments continue until the mice will reach 10-12 months of age. At that point they are sacrificed and analyzed for signs of progression to MF as described by Spangrude G J et al, Stem Cells 2016; 34:67-82; Zingariello M et al, Blood 2013; 121:3345-63. […]

JAK3 = JAK3 (Homo sapiens, UniProt P52333); settings: at clinically relevant concentrations; cited from earlier work
JAK3, sequence (P52333 whole entry): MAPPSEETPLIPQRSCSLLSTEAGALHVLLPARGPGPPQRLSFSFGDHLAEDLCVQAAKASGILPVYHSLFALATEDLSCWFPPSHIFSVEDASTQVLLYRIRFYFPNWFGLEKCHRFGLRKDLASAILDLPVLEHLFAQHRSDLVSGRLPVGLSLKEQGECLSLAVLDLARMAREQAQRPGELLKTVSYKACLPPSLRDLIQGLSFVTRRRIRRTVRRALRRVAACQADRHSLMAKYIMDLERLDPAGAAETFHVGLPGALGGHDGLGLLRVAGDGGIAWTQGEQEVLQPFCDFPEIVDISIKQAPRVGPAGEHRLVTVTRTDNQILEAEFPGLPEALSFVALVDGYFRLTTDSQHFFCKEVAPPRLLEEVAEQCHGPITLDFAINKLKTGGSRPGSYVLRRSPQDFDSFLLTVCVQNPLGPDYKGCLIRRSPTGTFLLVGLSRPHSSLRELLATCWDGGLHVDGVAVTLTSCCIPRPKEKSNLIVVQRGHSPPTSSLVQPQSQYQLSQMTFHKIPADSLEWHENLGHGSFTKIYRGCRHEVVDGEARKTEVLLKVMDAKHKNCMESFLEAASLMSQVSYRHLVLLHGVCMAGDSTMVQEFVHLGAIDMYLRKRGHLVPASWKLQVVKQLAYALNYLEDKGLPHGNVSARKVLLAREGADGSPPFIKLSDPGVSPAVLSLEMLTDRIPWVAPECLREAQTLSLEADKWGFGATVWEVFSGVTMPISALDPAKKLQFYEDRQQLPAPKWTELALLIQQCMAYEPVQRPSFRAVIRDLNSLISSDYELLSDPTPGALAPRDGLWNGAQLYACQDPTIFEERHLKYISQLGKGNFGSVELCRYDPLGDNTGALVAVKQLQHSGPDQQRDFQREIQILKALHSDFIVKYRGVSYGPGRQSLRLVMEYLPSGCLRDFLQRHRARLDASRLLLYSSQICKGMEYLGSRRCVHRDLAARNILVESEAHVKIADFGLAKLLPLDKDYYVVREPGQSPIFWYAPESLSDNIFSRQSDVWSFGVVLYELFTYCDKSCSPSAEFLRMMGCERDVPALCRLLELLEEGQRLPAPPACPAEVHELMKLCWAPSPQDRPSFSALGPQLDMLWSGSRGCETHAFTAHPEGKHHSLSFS

[1] = system: broad panel of 26 kinases; settings: tested at 200 nM; cited from earlier work
P-selectin = biological target: T1, P-selectin (Homo sapiens, UniProt P16109); settings: cited from earlier work
T1 sequence (P16109 42-830): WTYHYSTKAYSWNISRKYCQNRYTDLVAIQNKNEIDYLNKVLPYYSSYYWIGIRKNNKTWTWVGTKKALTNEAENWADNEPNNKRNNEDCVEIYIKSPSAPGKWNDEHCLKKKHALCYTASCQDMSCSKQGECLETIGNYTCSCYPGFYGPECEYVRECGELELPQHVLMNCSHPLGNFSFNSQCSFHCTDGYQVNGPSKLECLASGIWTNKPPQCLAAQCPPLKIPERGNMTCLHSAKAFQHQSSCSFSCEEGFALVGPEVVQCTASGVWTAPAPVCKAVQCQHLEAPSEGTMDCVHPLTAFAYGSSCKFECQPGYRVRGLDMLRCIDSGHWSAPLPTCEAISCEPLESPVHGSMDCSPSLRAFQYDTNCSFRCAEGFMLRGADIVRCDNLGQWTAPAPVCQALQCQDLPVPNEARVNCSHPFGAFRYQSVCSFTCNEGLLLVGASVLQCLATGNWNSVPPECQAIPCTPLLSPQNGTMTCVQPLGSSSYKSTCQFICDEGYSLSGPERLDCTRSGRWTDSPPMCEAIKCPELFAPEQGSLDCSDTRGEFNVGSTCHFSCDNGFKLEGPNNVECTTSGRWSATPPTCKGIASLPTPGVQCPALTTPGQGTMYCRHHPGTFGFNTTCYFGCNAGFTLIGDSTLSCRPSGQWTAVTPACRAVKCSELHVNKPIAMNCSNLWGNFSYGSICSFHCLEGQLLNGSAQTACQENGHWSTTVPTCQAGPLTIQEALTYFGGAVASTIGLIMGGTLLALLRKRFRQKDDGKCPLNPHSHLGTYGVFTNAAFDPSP

NC(=O)c1ccc(-c2nc(-c3ccc4c(c3)OCO4)c(-c3ccccn3)[nH]2)cc1 [SB431542]
toxicity profile (Gata1^low mice): poor toxicity profile (increased osteosclerosis)

N#CC[C@H](C1CCCC1)n1cc(-c2ncnc3[nH]ccc23)cn1 [ruxolitinib, (R)-3-(4-(7H-pyrrolo[2,3-d]pyrimidin-4-yl)-1H-pyrazol-1-yl)-3-cyclopentylpropanenitrile]
inhibition of JAK3 (JAK3): does not inhibit | inhibition [1]: < 30%

B1: crizanlizumab: humanized monoclonal antibody targeted towards P-selectin, blocks its interaction with PSGL-1 (antibody)
heavy: QVQLVQSGAEVKKPGASVKVSCKVSGYTFTSYDINWVRQAPGKGLEWMGWIYPGDGSIKYNEKFKGRVTMTVDKSTDTAYMELSSLRSEDTAVYYCARRGEYGNYEGAMDYWGQGTLVTVSSASTKGPSVFPLAPCSRSTSESTAALGCLVKDYFPEPVTVSWNSGALTSGVHTFPAVLQSSGLYSLSSVVTVTSSNFGTQTYTCNVDHKPSNTKVDKTVERKCCVECPPCPAPPVAGPSVFLFPPKPKDTLMISRTPEVTCVVVDVSHEDPEVQFNWYVDGMEVHNAKTKPREEQFNSTFRVVSVLTVVHQDWLNGKEYKCAVSNKGLPAPIEKTISKTKGQPREPQVYTLPPSREEMTKNQVSLTCLVKGFYPSDIAVEWESNGQPENNYKTTPPMLDSDGSFFLYSKLTVDKSRWQQGNVFSCSVMHEALHNHYTQKSLSLSPGK
light: DIQMTQSPSSLSASVGDRVTITCKASQSVDYDGHSYMNWYQQKPGKAPKLLIYAASNLESGVPSRFSGSGSGTDFTLTISSLQPEDFATYYCQQSDENPLTFGGGTKVEIKRTVAAPSVFIFPPSDEQLKSGTASVVCLLNNFYPREAKVQWKVDNALQSGNSQESVTEQDSKDSTYSLSSTLTLSKADYEKHKVYACEVTHQGLSSPVTKSFNRGEC
blocking of P-selectin interaction with PSGL-1 (P-selectin): blocks its interaction with P-selectin glycoprotein ligand 1 (PSGL-1) | dissociation of already formed P-selectin/PSGL-1 complexes (P-selectin): dissociates P-selectin/PSLG-1 complexes that have already formed
